According to ChEMBL document CHEMBL3045645, “Organophosphorus derivatives containing isatin-3-hydrazones as chemotherapeutants against fungal pathogens of sugarcane” (2008):
Converted amounts (≈) assume the structure as drawn.

How the values were obtained:
Format in all cases: functional
[1] = system: Colletotrichum falcatum; test: Ratio of copper oxychloride MIC to compound MIC for Glomerella tucumanensis after 7 days by food poison technique
[2] = system: Curvularia pallescens; test: Ratio of carbendazim MIC to compound MIC for Cochliobolus pallescens after 7 days by food poison technique
[3] = system: Fusarium oxysporum; test: Antifungal activity against Fusarium oxysporum assessed as mycelial growth inhibition at 10 ppm at 28 +/-2 degC after 7 days by food poison technique; conditions: 168 h, read-out: GI
[4] = system: Colletotrichum falcatum; test: Antifungal activity against Glomerella tucumanensis assessed as mycelial growth inhibition at 28 +/-2 degC after 7 days by food poison technique; conditions: 168 h
[5] = system: Fusarium oxysporum; test: Antifungal activity against Fusarium oxysporum assessed as mycelial growth inhibition at 100 ppm at 28 +/-2 degC after 7 days by food poison technique; conditions: 168 h, read-out: GI
[6] = system: Colletotrichum falcatum; test: Antifungal activity against Glomerella tucumanensis assessed as mycelial growth inhibition at 10 ppm at 28 +/-2 degC after 7 days by food poison technique; conditions: 168 h, read-out: GI
[7] = system: Curvularia pallescens; test: Ratio of mancozeb MIC to compound MIC for Cochliobolus pallescens after 7 days by food poison technique
[8] = system: Fusarium oxysporum; test: Ratio of thiophanate MIC to compound MIC for Fusarium oxysporum after 7 days by food poison technique
[9] = system: Curvularia pallescens; test: Antifungal activity against Cochliobolus pallescens assessed as mycelial growth inhibition at 28 +/-2 degC after 7 days by food poison technique; conditions: 168 h
[10] = system: Fusarium oxysporum; test: Ratio of mancozeb MIC to compound MIC for Fusarium oxysporum after 7 days by food poison technique
[11] = system: Curvularia pallescens; test: Antifungal activity against Cochliobolus pallescens assessed as mycelial growth inhibition at 100 ppm at 28 +/-2 degC after 7 days by food poison technique; conditions: 168 h, read-out: GI
[12] = system: Fusarium oxysporum; test: Ratio of copper oxychloride MIC to compound MIC for Fusarium oxysporum after 7 days by food poison technique
[13] = system: Fusarium oxysporum; test: Antifungal activity against Fusarium oxysporum assessed as mycelial growth inhibition at 28 +/-2 degC after 7 days by food poison technique; conditions: 168 h
[14] = system: Curvularia pallescens; test: Ratio of thiophanate MIC to compound MIC for Cochliobolus pallescens after 7 days by food poison technique
[15] = system: Colletotrichum falcatum; test: Ratio of thiophanate MIC to compound MIC for Glomerella tucumanensis after 7 days by food poison technique
[16] = system: Colletotrichum falcatum; test: Ratio of mancozeb MIC to compound MIC for Glomerella tucumanensis after 7 days by food poison technique
[17] = system: Colletotrichum falcatum; test: Antifungal activity against Glomerella tucumanensis assessed as mycelial growth inhibition at 100 ppm at 28 +/-2 degC after 7 days by food poison technique; conditions: 168 h, read-out: GI
[18] = system: Fusarium oxysporum; test: Antifungal activity against Fusarium oxysporum assessed as mycelial growth inhibition at 1000 ppm at 28 +/-2 degC after 7 days by food poison technique; conditions: 168 h, read-out: GI
[19] = system: Curvularia pallescens; test: Antifungal activity against Cochliobolus pallescens assessed as mycelial growth inhibition at 10 ppm at 28 +/-2 degC after 7 days by food poison technique; conditions: 168 h, read-out: GI
[20] = system: Curvularia pallescens; test: Antifungal activity against Cochliobolus pallescens assessed as mycelial growth inhibition at 1000 ppm at 28 +/-2 degC after 7 days by food poison technique; conditions: 168 h, read-out: GI
[21] = system: Curvularia pallescens; test: Ratio of copper oxychloride MIC to compound MIC for Cochliobolus pallescens after 7 days by food poison technique
[22] = system: Colletotrichum falcatum; test: Ratio of carbendazim MIC to compound MIC for Glomerella tucumanensis after 7 days by food poison technique
[23] = system: Colletotrichum falcatum; test: Antifungal activity against Glomerella tucumanensis assessed as mycelial growth inhibition at 1000 ppm at 28 +/-2 degC after 7 days by food poison technique; conditions: 168 h, read-out: GI
[24] = system: Fusarium oxysporum; test: Ratio of carbendazim MIC to compound MIC for Fusarium oxysporum after 7 days by food poison technique

Row | Compound | Ratio [1] | Ratio [2] | inhibition of growth at 10 ppm [3] | MIC [4] | inhibition of growth at 100 ppm [5] | inhibition of growth at 10 ppm [6] | Ratio [7] | Ratio [8] | MIC [9] | Ratio [10] | inhibition of growth at 100 ppm [11] | Ratio [12] | MIC [13] | Ratio [14] | Ratio [15] | Ratio [16] | inhibition of growth at 100 ppm [17] | inhibition of growth at 1000 ppm [18] | inhibition of growth at 10 ppm [19] | inhibition of growth at 1000 ppm [20] | other results
1 | CCOP(=S)(OCC)O/C(COc1ccc(Cl)cc1)=N\N=C1/C(=O)Nc2ccccc21 | 2 | 2 | 80% | 1000 µg/mL (≈ 2.08 mM) | 89.2% | 80.5% | 2 | 2 | 1000 µg/mL (≈ 2.08 mM) | 2 | 84.8% | 2 | 1000 µg/mL (≈ 2.08 mM) | 2 | 2 | 2 | 90.2% | 100% | 78.2% | 100% | Ratio [21]: 2; Ratio [22]: 2; inhibition of growth at 1000 ppm [23]: 100%; Ratio [24]: 2
2 | CCOP(=S)(OCC)O/C(COc1ccc(OP(=S)(OCC)OCC)cc1)=N\N=C1/C(=O)Nc2ccccc21 | 2 | 2 | 70.2% | 1000 µg/mL (≈ 1.62 mM) | 82.6% | 75.1% | 2 | 2 | 1000 µg/mL (≈ 1.62 mM) | 2 | 80.5% | 2 | 1000 µg/mL (≈ 1.62 mM) | 2 | 2 | 2 | 86.2% | 100% | 68.6% | 100% | Ratio [21]: 2; Ratio [22]: 2; inhibition of growth at 1000 ppm [23]: 100%; Ratio [24]: 2
3 | COC(=O)Nc1nc2ccccc2[nH]1 [CARBENDAZIM] | – | – | – | 4000 µg/mL (≈ 20.9 mM) | – | – | – | – | 4000 µg/mL (≈ 20.9 mM) | – | – | – | 3000 µg/mL (≈ 15.7 mM) | – | – | – | – | – | – | – | –
4 | COC(=O)NC(=S)Nc1ccccc1NC(=S)NC(=O)OC [THIOPHANATE METHYL] | – | – | – | 4000 µg/mL (≈ 11.7 mM) | – | – | – | – | 4000 µg/mL (≈ 11.7 mM) | – | – | – | 4000 µg/mL (≈ 11.7 mM) | – | – | – | – | – | – | – | –
